# Laboratory results published in ChEMBL document CHEMBL3352612, “Design, synthesis, and biological activities of 1-aryl-1,4-diazepan-2-one derivatives as novel triple reuptake inhibitors” (Bioorg Med Chem Lett, 2014).
# Active and inactive are the calls of the source. The calls are words filed in the database; no cut-off is given here.
# Legend:
# [1] = target: Voltage-gated inwardly rectifying potassium channel KCNH2 (Homo sapiens, UniProt Q12809); assay: Inhibition of human ERG
# Cytochrome P450 2D6 = Cytochrome P450 2D6 (Homo sapiens, UniProt P10635); assay: Inhibition of CYP2D6 (unknown origin); assay type: ADME
# [2] = target: Sodium-dependent dopamine transporter (Homo sapiens, UniProt Q01959); assay: Inhibition of [3H]dopamine reuptake at human DAT expressed in CHO cells after 60 mins by scintillation counting; assay type: cell-based
# [3] = target: Sodium-dependent serotonin transporter (Homo sapiens, UniProt P31645); assay: Inhibition of [3H]serotonin reuptake at human SERT expressed in CHO cells after 20 mins by scintillation counting; assay type: cell-based
# [4] = target: Sodium-dependent noradrenaline transporter (Homo sapiens, UniProt P23975); assay: Inhibition of [3H]norepinephrine reuptake at human NET expressed in CHO cells after 45 mins by scintillation counting; assay type: cell-based
# Mus musculus [5] = assay: Antidepressant activity in po dosed ICR mouse assessed as immobility time measured 60 mins post dose by tail-suspension test; assay type: functional, organism-based
# Mus musculus [6] = assay: Increase in extracellular 5-HT level in ICR mouse prefrontal cortex at 3 mg/kg, po measured at 120 mins post dose relative to basal level by microdialysis; assay type: functional
# Mus musculus [7] = assay: Increase in extracellular dopamine level in ICR mouse prefrontal cortex at 3 mg/kg, po measured at 120 mins post dose relative to basal level by microdialysis; assay type: functional
# Mus musculus [8] = assay: Increase in extracellular norepinephrine level in ICR mouse prefrontal cortex at 3 mg/kg, po measured at 120 mins post dose relative to basal level by microdialysis; assay type: functional
# Mus musculus [9] = assay: Antidepressant activity in ICR mouse assessed as immobility time at 3 mg/kg, po measured 60 mins post dose by tail-suspension test; assay type: functional, organism-based; parameters: dose 3 mg/kg
# Chain of Cytochrome P450 2D6 (P10635 whole entry): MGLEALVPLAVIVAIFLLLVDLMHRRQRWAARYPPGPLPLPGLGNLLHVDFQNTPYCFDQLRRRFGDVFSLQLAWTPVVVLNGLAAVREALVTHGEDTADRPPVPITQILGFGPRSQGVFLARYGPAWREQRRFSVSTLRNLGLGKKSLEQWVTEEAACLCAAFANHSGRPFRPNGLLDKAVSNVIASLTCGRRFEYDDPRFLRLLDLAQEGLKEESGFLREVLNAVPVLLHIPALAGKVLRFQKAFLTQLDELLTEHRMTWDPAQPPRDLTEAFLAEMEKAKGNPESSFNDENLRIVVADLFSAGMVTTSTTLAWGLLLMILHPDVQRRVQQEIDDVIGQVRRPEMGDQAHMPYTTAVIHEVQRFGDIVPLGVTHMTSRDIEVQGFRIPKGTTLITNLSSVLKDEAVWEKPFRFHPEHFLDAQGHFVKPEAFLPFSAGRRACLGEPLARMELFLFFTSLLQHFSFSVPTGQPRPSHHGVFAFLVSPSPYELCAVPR
# Chain of Sodium-dependent serotonin transporter (P31645 whole entry): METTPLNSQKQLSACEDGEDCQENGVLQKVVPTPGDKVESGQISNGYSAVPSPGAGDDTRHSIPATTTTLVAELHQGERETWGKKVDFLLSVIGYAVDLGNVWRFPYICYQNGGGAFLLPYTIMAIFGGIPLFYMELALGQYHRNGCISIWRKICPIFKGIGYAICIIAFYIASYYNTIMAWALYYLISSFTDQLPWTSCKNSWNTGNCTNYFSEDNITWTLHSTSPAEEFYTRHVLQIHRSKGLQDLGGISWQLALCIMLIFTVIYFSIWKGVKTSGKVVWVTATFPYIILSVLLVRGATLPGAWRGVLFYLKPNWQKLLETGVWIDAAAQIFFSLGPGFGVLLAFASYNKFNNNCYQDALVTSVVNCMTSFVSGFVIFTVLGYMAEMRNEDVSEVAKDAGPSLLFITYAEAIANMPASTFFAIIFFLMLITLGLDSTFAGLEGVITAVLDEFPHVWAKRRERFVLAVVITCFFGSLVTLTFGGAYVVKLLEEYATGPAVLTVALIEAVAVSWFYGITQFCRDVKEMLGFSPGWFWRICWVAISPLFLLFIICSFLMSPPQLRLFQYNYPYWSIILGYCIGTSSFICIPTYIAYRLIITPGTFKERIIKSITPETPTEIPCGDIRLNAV
# Chain of Sodium-dependent noradrenaline transporter (P23975 whole entry): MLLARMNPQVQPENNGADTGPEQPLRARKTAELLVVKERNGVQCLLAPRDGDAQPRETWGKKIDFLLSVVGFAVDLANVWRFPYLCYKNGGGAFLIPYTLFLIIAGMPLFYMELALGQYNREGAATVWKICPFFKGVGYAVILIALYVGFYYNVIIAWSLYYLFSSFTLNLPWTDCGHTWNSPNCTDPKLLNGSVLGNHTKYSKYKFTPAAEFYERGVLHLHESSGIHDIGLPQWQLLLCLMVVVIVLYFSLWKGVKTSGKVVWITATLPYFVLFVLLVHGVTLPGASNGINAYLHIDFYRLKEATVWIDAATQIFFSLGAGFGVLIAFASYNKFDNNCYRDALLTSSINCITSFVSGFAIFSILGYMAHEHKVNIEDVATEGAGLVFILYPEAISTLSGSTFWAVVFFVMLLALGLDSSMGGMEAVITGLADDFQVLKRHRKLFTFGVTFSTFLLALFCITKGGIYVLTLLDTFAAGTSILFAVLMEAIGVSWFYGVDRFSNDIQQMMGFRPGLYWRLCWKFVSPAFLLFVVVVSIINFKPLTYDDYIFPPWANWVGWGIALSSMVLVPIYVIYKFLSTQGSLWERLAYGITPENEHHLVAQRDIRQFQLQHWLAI
# Chain of Sodium-dependent dopamine transporter (Q01959 whole entry): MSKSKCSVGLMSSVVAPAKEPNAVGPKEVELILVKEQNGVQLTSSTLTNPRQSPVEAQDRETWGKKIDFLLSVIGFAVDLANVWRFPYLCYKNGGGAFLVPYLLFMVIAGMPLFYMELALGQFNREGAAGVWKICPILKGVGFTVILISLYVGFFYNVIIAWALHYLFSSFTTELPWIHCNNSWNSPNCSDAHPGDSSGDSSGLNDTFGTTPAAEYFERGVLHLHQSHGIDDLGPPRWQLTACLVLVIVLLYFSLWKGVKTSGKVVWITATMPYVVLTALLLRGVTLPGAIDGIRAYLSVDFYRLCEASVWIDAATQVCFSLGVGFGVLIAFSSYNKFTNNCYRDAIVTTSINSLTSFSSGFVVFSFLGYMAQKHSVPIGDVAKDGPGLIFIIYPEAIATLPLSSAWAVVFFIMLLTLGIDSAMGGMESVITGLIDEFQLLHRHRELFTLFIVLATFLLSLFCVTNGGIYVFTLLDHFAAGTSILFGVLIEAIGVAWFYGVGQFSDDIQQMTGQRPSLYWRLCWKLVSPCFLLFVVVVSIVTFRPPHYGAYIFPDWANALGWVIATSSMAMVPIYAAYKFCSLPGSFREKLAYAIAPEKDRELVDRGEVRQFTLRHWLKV
# Chain of Voltage-gated inwardly rectifying potassium channel KCNH2 (Q12809 whole entry): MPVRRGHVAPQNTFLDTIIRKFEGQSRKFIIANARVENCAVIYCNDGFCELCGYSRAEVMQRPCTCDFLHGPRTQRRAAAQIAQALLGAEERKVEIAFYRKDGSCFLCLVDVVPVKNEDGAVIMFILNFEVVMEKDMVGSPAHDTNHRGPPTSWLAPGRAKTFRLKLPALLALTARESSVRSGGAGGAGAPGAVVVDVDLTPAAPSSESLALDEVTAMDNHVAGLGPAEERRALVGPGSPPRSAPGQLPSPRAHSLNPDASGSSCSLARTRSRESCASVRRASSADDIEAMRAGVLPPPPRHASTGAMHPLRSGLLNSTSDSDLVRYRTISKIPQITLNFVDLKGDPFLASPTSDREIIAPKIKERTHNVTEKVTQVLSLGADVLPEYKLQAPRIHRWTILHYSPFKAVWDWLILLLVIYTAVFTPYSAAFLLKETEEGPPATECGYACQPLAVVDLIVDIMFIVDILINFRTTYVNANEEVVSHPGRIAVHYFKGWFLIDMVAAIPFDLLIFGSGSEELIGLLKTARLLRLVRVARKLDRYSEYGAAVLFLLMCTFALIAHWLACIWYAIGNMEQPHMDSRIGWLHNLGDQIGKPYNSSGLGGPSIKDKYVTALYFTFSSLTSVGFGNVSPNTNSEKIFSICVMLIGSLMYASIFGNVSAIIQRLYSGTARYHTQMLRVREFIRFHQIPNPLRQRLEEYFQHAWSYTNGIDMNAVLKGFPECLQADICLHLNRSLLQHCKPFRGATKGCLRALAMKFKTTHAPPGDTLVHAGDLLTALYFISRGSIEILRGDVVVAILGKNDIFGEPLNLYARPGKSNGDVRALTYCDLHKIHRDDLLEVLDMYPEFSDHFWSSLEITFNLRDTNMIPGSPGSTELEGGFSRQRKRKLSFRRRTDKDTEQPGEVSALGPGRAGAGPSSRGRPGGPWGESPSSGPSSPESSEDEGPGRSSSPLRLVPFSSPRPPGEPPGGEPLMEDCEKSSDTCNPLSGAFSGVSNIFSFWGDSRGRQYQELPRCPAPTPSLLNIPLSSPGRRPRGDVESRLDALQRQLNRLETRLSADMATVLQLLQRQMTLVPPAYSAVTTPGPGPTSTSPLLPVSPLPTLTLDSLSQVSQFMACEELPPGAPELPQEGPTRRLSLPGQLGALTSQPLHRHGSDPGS
SMILES,inhibition (INH) (Cytochrome P450 2D6),IC50 [2],IC50 [3],IC50 [4],inhibition (INH) [1],Activity (Mus musculus [5]),Activity (Mus musculus [6]),Activity (Mus musculus [7]),Activity (Mus musculus [8]),Activity (Mus musculus [9])
CC1CNCC(=O)N(c2ccc(Cl)c(Cl)c2)C1 (racemic),–,4000 nM,2200 nM,260 nM,–,–,–,–,–,–
CCC1NCCCN(c2ccc3ccccc3c2)C1=O.Cl (racemic),Not Active,130 nM,88 nM,9.2 nM,Not Active,–,–,–,–,–
O=C1CNCC2(CC2)CN1c1ccc(Cl)c(Cl)c1,–,120 nM,2200 nM,82 nM,–,–,–,–,–,–
Cl.O=C1CNCCCN1c1ccc(Cl)c(Cl)c1,Not Active,420 nM,50 nM,13 nM,Not Active,–,–,–,–,–
O=C1CNCC(F)(F)CN1c1ccc(Cl)c(Cl)c1,–,8100 nM,1300 nM,2000 nM,–,–,–,–,–,–

# Further lines, with some results ahead:
inhibition (INH) (Cytochrome P450 2D6),IC50 [2],IC50 [3],IC50 [4],SMILES,inhibition (INH) [1],Activity (Mus musculus [5]),Activity (Mus musculus [6]),Activity (Mus musculus [7]),Activity (Mus musculus [8]),Activity (Mus musculus [9])
Not Active,340 nM,200 nM,14 nM,CC1NCCCN(c2ccc3ccccc3c2)C1=O.Cl (racemic),Not Active,–,–,–,–,–
Not Active,470 nM,530 nM,8 nM,CC1NCCCN(c2ccc(Cl)c(Cl)c2)C1=O.Cl (racemic),Not Active,–,–,–,–,–
Not Active,> 10000 nM,5500 nM,3200 nM,CN1CCCN(c2ccc(Cl)c(Cl)c2)C(=O)C1.Cl,Not Active,–,–,–,–,–
–,> 10000 nM,260 nM,570 nM,C[C@H]1NCCCN(c2ccc3ccccc3c2)C1=O,–,–,–,–,–,–
–,4500 nM,1900 nM,660 nM,CC1CCNCC(=O)N1c1ccc(Cl)c(Cl)c1 (racemic),–,–,–,–,–,–
Not Active,190 nM,570 nM,7.7 nM,CCC1NCCCN(c2ccc(Cl)c(Cl)c2)C1=O.Cl (racemic),Not Active,–,–,–,–,–
Not Active,160 nM,83 nM,3.8 nM,C[C@@H]1NCCCN(c2ccc3ccccc3c2)C1=O.Cl,Not Active,Dose-dependent effect,210%,640%,750%,Active
Not Active,> 10000 nM,4300 nM,1700 nM,CC1CCN(c2ccc(Cl)c(Cl)c2)C(=O)CN1.Cl (racemic),Not Active,–,–,–,–,–
